These results are taken from publication PMC5701947, “β1-Adrenergic Receptor Contains Multiple IA^k and IE^k Binding Epitopes That Induce T Cell Responses with Varying Degrees of Autoimmune Myocarditis in A/J Mice” (Frontiers in Immunology, 2017).

In data set [1] the test system is non-cardiac tissues (brain, lung, liver, kidney). Particulars: mouse, in vivo.
Data set [2] addresses T1, IA^k (Mus musculus, UniProt P01910+P06343).
T1 construct: soluble IA^k and IE^k monomers were expressed; class II-associated invariant-chain peptide (CLIP) 88–102 (VSQMRMATPLLMRPM) with thrombin cleavage site (cleaved yes); made in house; host or cells: baculovirus expression (sf9 cells are named only for the IA^k dextramer constructs)
Put plainly: MHC class II-binding assay, IA^k. Also on record: species or system A/J mice. Particulars: for IC50: competition with biotinylated HEL 46–61 (1 µM), empty IA^k monomers 0.35 µg, competitor 0.00001–100 µM, pH 7.0, overnight, RT, DELFIA europium fluorescence 340/615 nm, mean ± SEM, three experiments with two replicates each. How it is done: A/J mice express two MHC class II alleles, IA^k and IE^k ([33], [34]), and to determine the affinities of β1AR peptides, soluble IA^k and IE^k monomers were expressed ([34], [35]). In brief, the β-chain in each of IA^k and IE^k constructs contain sequence for class II-associated invariant-chain peptide 88–102 (VSQMRMATPLLMRPM) linked with thrombin cleavage site ([34], [35]). After expressing in the baculovirus, soluble IA^k and IE^k monomers were treated with thrombin (20 U/mg; Novagen, Madison, WI, USA) to release class II-associated invariant-chain peptide leading us to obtain empty IA^k and IE^k molecules. Reaction mixtures were prepared to include empty IA^k or IE^k monomers (0.35 µg), competitor peptides (β1ARAc 171–190, β1ARAc 181–200, β1ARAc 201–220, and β1ARAc 211–230) (0.00001–100 µM), and constant amounts of the biotinylated reference peptides HEL 46–61 (for IA^k) or MCC 82–103 (for IE^k) (1 µM) in a buffer containing 50 mM sodium phosphate pH 7.0, 100 mM sodium chloride, 1 mM EDTA, and 1 × protease inhibitor (Sigma-Aldrich, St. Louis, MO, USA) ([36]–[38]). After incubating overnight at RT, the mixtures were transferred to 96-well white fluorescence plates coated with anti-IA^k (clone 10-2.16, BioXcell, West Lebanon, NH, USA), and anti-IE^k (clone M5/114, BioXcell) Abs (10 µg/ml) in 0.2 M sodium phosphate buffer, pH 6.8, blocked with 2% bovine casein; and the plates were incubated on a rocker at RT for 1 h. Finally, after adding 100 µl of europium-labeled streptavidin (0.1 µg/ml) and dissociation-enhanced lanthanide fluoroimmunoassay (DELFIA) enhancement solution (Perkin Elmer) sequentially, fluorescence intensities were measured at excitation/emission wavelengths of 340/615 nm using a Victor Multilabel Plate Reader (Perkin Elmer). The IC50 values were determined based on the concentrations of competitor peptides needed to prevent 50% binding of the reference peptides as we have described previously ([26], [28], [30]).

Data set [3] concerns CD4 and CD8 T cells. Particulars: cited from earlier work. The text has this:
Expectedly, sections from control groups were negative for all the markers tested except rare CD11b^+ cells.

The subject of data set [4] is A/J mice (hearts). Description: Induction of myocarditis by active immunization with peptides (histology). Type of data set: in vivo.
The test system of data set [5] is serum antibodies (Igs and isotypes) of immunized mice. Description: ELISA, antibodies that react with β1ARAc peptides. Type of data set: in vivo, A/J mice. As to conditions: serum 1:100, day 21, OD 405 nm; for Antibody response, total Igs (in words): five animals per group. How it is done: ELISA was used to measure antibodies that react with β1ARAc peptides in the serum samples collected from immunized animals at termination on day 21 as described previously ([26]). […] After washing/blocking, serum samples (1:100) were added in duplicates, and the plates were incubated at 37°C for 1 h followed by addition of HRP-labeled goat anti-mouse immunoglobulins (Igs), IgG1, IgG2a, IgG2b, IgG3, IgM, IgA, and IgE (Southern Biotech, Birmingham, AL, USA) as secondary antibodies. Two hours after incubation at RT, 1 × tetramethylbenzidine solution was added as a substrate (eBioscience), and reactions were stopped using 1 M phosphoric acid. The plates were read at 405 nm using an automated ELISA reader (BioTek instruments, Winooski, VT, USA) to measure OD values ([26], [46]).
On the technique in general: An ELISA detects its analyte on a solid surface through an enzyme-linked reagent.

The test system of data set [6] is T cells (lymph node cells/splenocytes from immunized animals). Description: T cell proliferation assay ([3H]-thymidine). As to conditions: proliferation, 0–100 µg/ml, 2 days + 16 h [3H]-thymidine; cpm. Type of data set: cell-based, A/J mice. How it is done:
At termination, lymph nodes (maxillary, mandibular, axillary, inguinal, and popliteal) and spleens were harvested from immunized animals to prepare single cell suspensions. Similarly, splenocytes were prepared from naive animals. After lysing the erythrocytes and washing, cell pellets were suspended in RPMI medium containing 10% fetal bovine serum, 1 mM sodium pyruvate, 4 mM L-glutamine, 1 × each of non-essential amino acids and vitamin mixture, and 100 U/ml penicillin–streptomycin (Lonza, Walkersville, MD, USA; hereafter called growth medium). In some experiments, CD4 T cells and CD8 T cells were enriched to a purity of ~95% by negative selection based on magnetic separation using IMAG (BD Biosciences, San Jose, CA, USA) ([31]). To stimulate CD4 and CD8 T cells, syngeneic naive irradiated splenocytes loaded with peptides were used as antigen-presenting cells at a ratio of 1:1. Cells were stimulated at a density of ~5 × 10^6 cells/ml in triplicates with or without the immunizing peptides (0–100 µg/ml) in growth medium. RNase 43–56 or HEL 46–61 were used as irrelevant controls. After 2 days, cells were pulsed with tritiated ^3[H]-thymidine (1 μCi/well; MP Biomedicals, Santa Ana, CA, USA), and 16 h later, proliferative responses were measured as counts per minute (cpm) using a Wallac liquid scintillation counter (Perkin Elmer, Waltham, MA, USA) ([26], [28], [30]).

Where [7] appears, read: acetylated peptides in CFA/PT (100 µg individually, 50 µg each when pooled), days 0 and 7, day 21.

No end group written: not given here.

T1 sequence (P01910 24-218 limits assumed): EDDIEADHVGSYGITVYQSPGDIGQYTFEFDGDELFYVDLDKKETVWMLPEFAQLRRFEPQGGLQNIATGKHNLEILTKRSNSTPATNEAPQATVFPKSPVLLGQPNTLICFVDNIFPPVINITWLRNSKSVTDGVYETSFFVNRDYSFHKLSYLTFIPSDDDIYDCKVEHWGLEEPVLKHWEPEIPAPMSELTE
T1 sequence (P06343 28-224 limits assumed): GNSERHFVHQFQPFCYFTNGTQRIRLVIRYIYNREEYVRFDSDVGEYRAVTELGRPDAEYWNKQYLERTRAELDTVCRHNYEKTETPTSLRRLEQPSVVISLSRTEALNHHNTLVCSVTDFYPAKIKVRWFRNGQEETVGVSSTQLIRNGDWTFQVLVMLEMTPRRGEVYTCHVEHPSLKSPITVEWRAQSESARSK

“Ac-TRARARALVCTVWAISALVS [β1ARAc 171–190]”: in data set [1], the “Brain, incidence (animals affected/total)” value is reported as 0/6; the “Brain, incidence of inflammation” value came out at 0%; the “Brain, inflammatory foci” value was determined as 0; the “Kidney, incidence (animals affected/total)” value is given as 0/6. In data set [1], the “Kidney, incidence of inflammation” value turned out to be 0%; the “Kidney, inflammatory foci” value is given as 0; the “Liver, incidence (animals affected/total)” value is 6/6; the “Liver, incidence of inflammation” value came out at 100%. Besides, in data set [1], the “Liver, inflammatory foci” value was 29.17 ± 6.83; the “Lung, incidence (animals affected/total)” value is given as 6/6; the “Lung, incidence of inflammation” value is listed as 100%; the “Lung, inflammatory foci” value was 4.33 ± 0 .21. For the same substance, the IC50 – broadly, the concentration needed to halve the response being measured – in data set [2] turned out to be 26.1 ± 12.4 µM.
With “Ac-TVWAISALVSFLPILMHWWR [β1ARAc 181–200]”, in data set [1], the “Brain, incidence (animals affected/total)” value was 0/6; the “Brain, incidence of inflammation” value is listed as 0%; the “Brain, inflammatory foci” value is recorded as 0; the “Kidney, incidence (animals affected/total)” value is on record as 0/6. In addition, in data set [1], the “Kidney, incidence of inflammation” value is 0%; the “Kidney, inflammatory foci” value is given as 0; the “Liver, incidence (animals affected/total)” value is 6/6; the “Liver, incidence of inflammation” value came out at 100%. Also, in data set [1], the “Liver, inflammatory foci” value is 44.50 ± 11.66; the “Lung, incidence (animals affected/total)” value is 6/6; the “Lung, incidence of inflammation” value is on record as 100%; the “Lung, inflammatory foci” value is recorded as 3.17 ± 0.60. The substance also returned an IC50 in data set [2] of 97.1 ± 2.07 µM.
As for “Myhc 334–352: cardiac myosin heavy chain-α 334–352 (DSAFDVLSFTAEEKAGVYK; UniProt Q02566 334-352, looked up, fragment)”, the “Common epitope for CD4 and CD8 T cells (in words)” value (shortened to “Common epitope”) in data set [3] is “common epitopes for both CD4 and CD8 T cells”.
Turning to “interphotoreceptor retinoid-binding protein 1–20: CD4 and CD8 common epitope (GPTHLFQPSLVLDMAKVLLD; UniProt P10745 18-37, looked up, fragment)”, the “Common epitope” value in data set [3] is “common epitopes for both CD4 and CD8 T cells”.
In the case of “myelin oligodendrocyte glycoprotein 35–55: CD4 and CD8 common epitope (MEVGWYRSPFSRVVHLYRNGK; UniProt Q61885 63-83, looked up, fragment)”, the “Common epitope” value in data set [3] was “common epitopes for both CD4 and CD8 T cells”.
Take “β1ARAc 191–210: N-terminal acetylated mouse β1-adrenergic receptor peptide 191–210 (Ac-FLPILMHWWRAESDEARRCY; UniProt P34971 191-210, looked up, fragment)”: in data set [4] (setting [7]), the Myocarditis incidence worked out at 0% and the “Myocarditis incidence (animals with disease/total)” value is given as 0/5. In addition, the Inflammatory foci in data set [4] (acetylated peptides in CFA/PT, mean ± SEM of myocarditic animals, day 21) was found to be 0. In addition, the “Antibody response, total Igs (in words)” value in data set [5] was “to some degree”. Moreover, in data set [6], the “T cell responses (in words)” value was “non-T cell activators”.
In the case of “β1ARAc 201–220: N-terminal acetylated mouse β1-adrenergic receptor peptide 201–220 (Ac-AESDEARRCYNDPKCCDFVT; cysteine pairing not given here; UniProt P34971 201-220, looked up, fragment)”, the “Myocarditis induction (in words)” value in data set [4] (acetylated peptide, standard CFA/PT protocol) is on record as “failed to induce myocarditis”. In data set [5], the “Antibody isotypes produced, IgG and IgM (in words)” value was “all IgG isotypes (IgG1, IgG2a, IgG2b, IgG3) including IgM”; the “Antibody response, total Igs (in words)” value is recorded as “antibody response”. Moreover, the “IA^k binding (in words)” value in data set [2] (soluble IA^k monomers, reference HEL 46–61, Figure S1B) is “failed to bind IA^k molecule”. Besides, the “T cell responses (in words)” value in data set [6] was “non-T cell activators”.
